Source: patent publication US7250304B2, “Functional assay of high-density lipoprotein” (The Regents of the University of California, priority 2000, dated 2007)

System: HAEC monolayers
Assay: Monocyte adhesion assay
Format: cell-based, human
Conditions: LDL 1 mg/ml incubated with apo A-I 100 μg/ml 2 hrs, re-isolated
Description: In brief, HAEC monolayers, in 48-well tissue culture plates were incubated with the desired LDL or phospholipid for 4 hrs at 37° C. as described (Watson et al. (1995) J. Clin. Invest. 96: 2882-2891). After washing, a suspension of human peripheral blood monocytes was added and incubated for 10 min. The loosely adherent monocytes were then washed away, the monolayers were fixed and the number of adherent monocytes counted in 9 high power microscopic fields.
Freshly isolated LDL (250 μg) was incubated with pure 13(S)-HPODE (1.0 μg) in 10% LPDS in M 199 for 4 hrs at 37° C. with gentle mixing. LDL was re-isolated by centrifugation and was incubated with monolayers of human aortic endothelial cells. […] The endothelial monolayer was washed after each time point and a monocyte suspension was added, incubated, washed, and the number of adherent monocytes determined.
Freshly isolated LDL (250 μg) was incubated with 10 units of pure soybean lipoxygenase bound to sepharose beads for 4 hrs at 37° C. with gentle mixing. […] The endothelial monolayer was washed after each time point and monocyte adhesion determined.
Blood samples were collected from patients referred to the cardiac catheterization laboratory at The Center for Health Sciences at the University of California, Los Angeles. […] The HDL-Ox-PAPC mixture was then added to endothelial monolayers and monocyte binding was determined.

apo A-I: Human apo A-I from Sigma, major apolipoprotein of HDL; infused into humans as apo A-I/phosphatidylcholine discs
monocyte adherence induced by LDL after A-I: did not stimulate monocyte adherence
